System: yeast genes (expressed mRNA)
Assay: DNA chip measurement of expressed mRNA of yeast genes after culture with a toxic chemical substance
Type: cell-based, Saccharomyces cerevisiae S288C
Method in brief: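 Yeast S288C, YPD 25° C; toxicant at log phase, 2 h, sublethal growth-inhibiting conc.; no-chemical control. Hot SDS/acetate RNA extraction, oligo-dT mRNA, Cy3/Cy5-dUTP RT. Whole-genome chip, 65° C >12 h. Readout: treated/control intensity ratio, ≥2 significant.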

Measured: The level of expressed mRNA in the presence of chemical substance/The level of expressed mRNA in the absence of chemical substance

O=[N+]([O-])c1cc[n+]([O-])c2ccccc12 [(5), 4-Nitroquinoline-N-oxide]
2.8: yeast gene YKL139W
2.1: yeast gene YNL217W, cultured two hours with the substance
1.4: yeast gene YMR295C, cultured two hours with substance | yeast gene YOL032W, cultured two hours with substance | yeast gene YOL047C, cultured two hours with substance | yeast gene YOL083W, cultured two hours with substance | yeast gene YOR019W, cultured two hours with substance
0.6: yeast gene YOR197W, cultured two hours with substance | yeast gene YPL087W, cultured two hours with substance
1.7: yeast gene YNL234W, cultured two hours with substance | yeast gene YNL281W, cultured two hours with substance | yeast gene YNR068C, cultured two hours with substance | yeast gene YOL117W, cultured two hours with substance
1.6: yeast gene YKR091W, cultured two hours with substance | yeast gene YNL156C, cultured two hours with substance
0.8: yeast gene YKL086W, cultured two hours with substance | yeast gene YLR149C, cultured two hours with substance | yeast gene YLR350W, cultured two hours with substance | yeast gene YML117W, cultured two hours with substance | yeast gene YMR184W, cultured two hours with substance | yeast gene YNL115C, cultured two hours with substance
2.2: yeast gene YML107C, cultured two hours with the substance
0.9: yeast gene YMR095C, cultured two hours with substance | yeast gene YNL092W, cultured two hours with substance | yeast gene YOL071W, cultured two hours with substance | yeast gene YOL162W, cultured two hours with substance
1.2: yeast gene YMR102C, cultured two hours with substance | yeast gene YNL044W, cultured two hours with substance | yeast gene YOL036W, cultured two hours with substance | yeast gene YPL222W, cultured two hours with substance
1.3: yeast gene YLR054C, cultured two hours with substance | yeast gene YLR324W, cultured two hours with substance | yeast gene YLR387C, cultured two hours with substance | yeast gene YLR460C, cultured two hours with substance | yeast gene YNL074C, cultured two hours with substance | yeast gene YNL305C, cultured two hours with substance | yeast gene YPR151C, cultured two hours with substance
2.5: yeast gene YLR388W
1.0: yeast gene YKL151C, cultured two hours with substance | yeast gene YKL153W, cultured two hours with substance | yeast gene YLR194C, cultured two hours with substance | yeast gene YMR180C, cultured two hours with substance | yeast gene YOL150C, cultured two hours with substance
1.8: yeast gene YOR215C, cultured two hours with substance
1.9: yeast gene YKL195W, cultured two hours with substance | yeast gene YMR009W, cultured two hours with substance
0.7: yeast gene YMR090W, cultured two hours with substance | yeast gene YMR097C, cultured two hours with substance | yeast gene YPL206C, cultured two hours with substance
1.5: yeast gene YMR191W, cultured two hours with substance | yeast gene YOL082W, cultured two hours with substance | yeast gene YOL131W, cultured two hours with substance | yeast gene YPL196W, cultured two hours with substance
1.1: yeast gene YLR152C, cultured two hours with substance | yeast gene YMR067C, cultured two hours with substance | yeast gene YMR107W, cultured two hours with substance | yeast gene YMR316W, cultured two hours with substance | yeast gene YPR023C, cultured two hours with substance

Source: US20100041089A1, “IMPROVED METHOD FOR DETECTING CHEMICAL […]” (priority 2006, published 2010)
